Experimental data taken from patent US20100222269A1, “IMPROVED DERIVATIVES OF AMYLIN” (priority 2007, published 2010).
Starred links: 1 amine or outer side, 2 acyl side, 3 side chain; linkers in the order of their positions; H or OH if unused. Positions of bridges follow the written chain, without caps; N, C: chain ends. Residues, ends and D or L forms follow the SMILES beside them. Groups on a side chain read outwards from the residue. *: point of attachment. C20 diacid = O=C(O)CCCCCCCCCCCCCCCCCCC(=O)*; C18 diacid = O=C(O)CCCCCCCCCCCCCCCCC(=O)*; γGlu = O=C(O)[C@H](CCC(=O)[*:2])N[*:1]; AEEA = NCCOCCOCC(=O)O

Target: T1, Amylin 3(a) receptor (human calcitonin receptor (CTa) with RAMP-3) (Homo sapiens, UniProt O60896+P30988)
T1 construct: expressed in transfected cells; host or cells: BHK570 (baby hamster kidney) cells, stably transfected, with CRE-luciferase reporter
T1 sequence (O60896 24-148): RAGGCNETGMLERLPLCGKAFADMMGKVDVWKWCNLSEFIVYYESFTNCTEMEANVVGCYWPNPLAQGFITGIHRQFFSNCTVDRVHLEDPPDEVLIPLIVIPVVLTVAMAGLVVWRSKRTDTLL
T1 sequence (P30988 25-474): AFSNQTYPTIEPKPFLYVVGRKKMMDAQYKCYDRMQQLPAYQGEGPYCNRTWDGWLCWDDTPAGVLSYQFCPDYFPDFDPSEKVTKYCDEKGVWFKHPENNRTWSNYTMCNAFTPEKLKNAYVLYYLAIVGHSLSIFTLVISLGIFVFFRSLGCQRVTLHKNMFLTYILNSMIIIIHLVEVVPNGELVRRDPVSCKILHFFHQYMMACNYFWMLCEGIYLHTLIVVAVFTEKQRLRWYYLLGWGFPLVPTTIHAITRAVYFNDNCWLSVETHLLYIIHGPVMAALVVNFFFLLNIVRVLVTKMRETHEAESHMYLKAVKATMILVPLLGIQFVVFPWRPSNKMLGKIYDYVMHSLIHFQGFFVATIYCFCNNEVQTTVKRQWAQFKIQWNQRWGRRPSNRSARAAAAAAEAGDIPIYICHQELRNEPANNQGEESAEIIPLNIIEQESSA
Test: Amylin luciferase assay (CRE-luciferase reporter in BHK Amylin 3(a)//CRE-luc cells)
Type: cell-based
Details: BHK570 cells with human calcitonin receptor (CTa), RAMP-3 and CRE-luciferase reporter; 4 hours incubation; read-out: Potency luciferase assay
How it was run: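 BHK570 cells stably expressing human calcitonin receptor (CTa), RAMP-3 and a CRE-luciferase reporter, about 20.000 cells/well, were exposed to standard or sample for 4 h at 37° C in phenol-red-free DMEM with 10% FBS and 10 mM Hepes pH 7,4. Luminescence was read after 30 min with LucLite at room temperature.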

Row | Structure (SMILES) | EC50
1 | CC(C)C[C@H](NC(=O)[C@H](CC(N)=O)NC(=O)[C@H](CCC(N)=O)NC(=O)[C@H](CO)NC(=O)[C@H](CO)NC(=O)[C@H](CCCNC(=N)N)NC(=O)[C@@H](NC(=O)[C@H](CC(C)C)NC(=O)[C@H](Cc1ccccc1)NC(=O)[C@H](CC(N)=O)NC(=O)[C@H](C)NC(=O)[C@H](CC(C)C)NC(=O)[C@H](CCCNC(=N)N)NC(=O)[C@H](CCC(N)=O)NC(=O)[C@@H](NC(=O)[C@H](C)NC(=O)[C@@H]1CSSC[C@H](NC(=O)[C@H](CCC(=O)O)NC(=O)[C@H](CCC(=O)O)NC(=O)[C@H](CCC(=O)O)NC(=O)[C@H](CCC(=O)O)NC(=O)CCCCCCCCCCCCCCCCCCC(=O)O)C(=O)N[C@@H](CCC(N)=O)C(=O)N[C@@H]([C@@H](C)O)C(=O)N[C@@H](C)C(=O)N[C@@H]([C@@H](C)O)C(=O)N1)[C@@H](C)O)C(C)C)C(=O)NCC(=O)N1CCC[C@H]1C(=O)N[C@H](C(=O)N[C@@H](CC(C)C)C(=O)N1CCC[C@H]1C(=O)N1CCC[C@H]1C(=O)N[C@H](C(=O)N[C@@H](CC(N)=O)C(=O)N[C@H](C(=O)NCC(=O)N[C@@H](CO)C(=O)N[C@@H](CC(N)=O)C(=O)N[C@H](C(=O)N[C@@H](Cc1ccc(O)cc1)C(N)=O)[C@@H](C)O)C(C)C)[C@@H](C)O)C(C)C [Example 37, N-alpha-(19-carboxynonadecanoyl)-Glu-Glu-Glu-[Glu1,Gln3,Arg18,Gln21,Leu23,Val26]-pramlintide (1-37)] ({C20 diacid}-EEEECQTATCATQRLANFLVRSSQNLGPVLPPTNVGSNTY-NH2; disulfide 5-10) | 2 nM
2 | CC[C@H](C)[C@H](NC(=O)[C@@H]1CCCN1C(=O)CNC(=O)[C@H](Cc1ccccc1)NC(=O)[C@H](CC(N)=O)NC(=O)[C@H](CC(N)=O)NC(=O)[C@H](CO)NC(=O)[C@H](CO)NC(=O)[C@H](Cc1c[nH]cn1)NC(=O)[C@@H](NC(=O)[C@H](CC(C)C)NC(=O)[C@H](Cc1ccccc1)NC(=O)[C@H](CC(N)=O)NC(=O)[C@H](C)NC(=O)[C@H](CC(C)C)NC(=O)[C@H](CCCNC(=N)N)NC(=O)[C@H](CCC(N)=O)NC(=O)[C@@H](NC(=O)[C@H](C)NC(=O)[C@@H]1CSSC[C@H](NC(=O)[C@H](CCCCN)NC(=O)[C@H](CCCNC(=N)N)NC(=O)[C@H](CCCCN)NC(=O)[C@H](CCC(=O)O)NC(=O)CCCCCCCCCCCCCCCCCCC(=O)O)C(=O)N[C@@H](CC(N)=O)C(=O)N[C@@H]([C@@H](C)O)C(=O)N[C@@H](C)C(=O)N[C@@H]([C@@H](C)O)C(=O)N1)[C@@H](C)O)C(C)C)C(=O)N[C@@H](CC(C)C)C(=O)N1CCC[C@H]1C(=O)N1CCC[C@H]1C(=O)N[C@H](C(=O)N[C@@H](CC(N)=O)C(=O)N[C@H](C(=O)NCC(=O)N[C@@H](CO)C(=O)N[C@@H](CC(N)=O)C(=O)N[C@H](C(=O)N[C@@H](Cc1ccc(O)cc1)C(N)=O)[C@@H](C)O)C(C)C)[C@@H](C)O [Example 50, N-alpha-(19-carboxynonadecanoyl)-Glu-Lys-Arg-pramlintide (1-37)] ({C20 diacid}-EKRKCNTATCATQRLANFLVHSSNNFGPILPPTNVGSNTY-NH2; disulfide 5-10) | 0.08 nM
3 | CC[C@H](C)[C@H](NC(=O)[C@@H]1CCCN1C(=O)CNC(=O)[C@H](Cc1ccccc1)NC(=O)[C@H](CC(N)=O)NC(=O)[C@H](CC(N)=O)NC(=O)[C@H](CO)NC(=O)[C@H](CO)NC(=O)[C@H](Cc1c[nH]cn1)NC(=O)[C@@H](NC(=O)[C@H](CC(C)C)NC(=O)[C@H](Cc1ccccc1)NC(=O)[C@H](CC(N)=O)NC(=O)[C@H](C)NC(=O)[C@H](CC(C)C)NC(=O)[C@H](CCCNC(=N)N)NC(=O)[C@H](CCC(N)=O)NC(=O)[C@@H](NC(=O)[C@H](C)NC(=O)[C@@H]1CSSC[C@H](NC(=O)CC[C@H](NC(=O)CCCCCCCCCCCCCCCCCCC(=O)O)C(=O)O)C(=O)N[C@@H](CC(N)=O)C(=O)N[C@@H]([C@@H](C)O)C(=O)N[C@@H](C)C(=O)N[C@@H]([C@@H](C)O)C(=O)N1)[C@@H](C)O)C(C)C)C(=O)N[C@@H](CC(C)C)C(=O)N1CCC[C@H]1C(=O)N1CCC[C@H]1C(=O)N[C@H](C(=O)N[C@@H](CC(N)=O)C(=O)N[C@H](C(=O)NCC(=O)N[C@@H](CO)C(=O)N[C@@H](CC(N)=O)C(=O)N[C@H](C(=O)N[C@@H](Cc1ccc(O)cc1)C(N)=O)[C@@H](C)O)C(C)C)[C@@H](C)O [Example 43, N-alpha-[(S)-4-carboxy-4-(19-carboxynonadecanoylamino)butyryl]-pramlintide (2-37)] ({C20 diacid-γGlu}-CNTATCATQRLANFLVHSSNNFGPILPPTNVGSNTY-NH2; disulfide 1-6; C-terminus assumed) | 0.1 nM

Results, then the molecule that gave them:

Row | EC50 | Structure (SMILES)
4 | 0.09 nM | CC[C@H](C)[C@H](NC(=O)[C@H](CCCCNC(=O)CC[C@H](NC(=O)CCCCCCCCCCCCCCCCC(=O)O)C(=O)O)NC(=O)CNC(=O)[C@H](Cc1ccccc1)NC(=O)[C@H](CC(N)=O)NC(=O)[C@H](CC(N)=O)NC(=O)[C@H](CO)NC(=O)[C@H](CO)NC(=O)[C@H](Cc1c[nH]cn1)NC(=O)[C@@H](NC(=O)[C@H](CC(C)C)NC(=O)[C@H](Cc1ccccc1)NC(=O)[C@H](CC(N)=O)NC(=O)[C@H](C)NC(=O)[C@H](CC(C)C)NC(=O)[C@H](CCCNC(=N)N)NC(=O)[C@H](CCC(N)=O)NC(=O)[C@@H](NC(=O)[C@H](C)NC(=O)[C@@H]1CSSC[C@H](NC(=O)[C@@H](N)CCCCN)C(=O)N[C@@H](CC(N)=O)C(=O)N[C@@H]([C@@H](C)O)C(=O)N[C@@H](C)C(=O)N[C@@H]([C@@H](C)O)C(=O)N1)[C@@H](C)O)C(C)C)C(=O)N[C@@H](CC(C)C)C(=O)N1CCC[C@H]1C(=O)N1CCC[C@H]1C(=O)N[C@H](C(=O)N[C@@H](CC(N)=O)C(=O)N[C@H](C(=O)NCC(=O)N[C@@H](CO)C(=O)N[C@@H](CC(N)=O)C(=O)N[C@H](C(=O)N[C@@H](Cc1ccc(O)cc1)C(N)=O)[C@@H](C)O)C(C)C)[C@@H](C)O [Example 27, N-epsilon25-[(S)-4-carboxy-4-(17-carboxyheptadecanoylamino)butyryl]-[Lys25]-pramlintide (1-37)] (H-KCNTATCATQRLANFLVHSSNNFGK([γGlu-C18 diacid])ILPPTNVGSNTY-NH2; disulfide 2-7; N-terminus assumed)
5 | 0.04 nM | CC[C@H](C)[C@H](NC(=O)[C@H](CCCCNC(=O)COCCOCCNC(=O)COCCOCCNC(=O)CCCCCCCCCCCCCCCCC(=O)O)NC(=O)CNC(=O)[C@H](Cc1ccccc1)NC(=O)[C@H](CC(N)=O)NC(=O)[C@H](CC(N)=O)NC(=O)[C@H](CO)NC(=O)[C@H](CO)NC(=O)[C@H](CCCNC(=N)N)NC(=O)[C@@H](NC(=O)[C@H](CC(C)C)NC(=O)[C@H](Cc1ccccc1)NC(=O)[C@H](CC(N)=O)NC(=O)[C@H](C)NC(=O)[C@H](CC(C)C)NC(=O)[C@H](CCCNC(=N)N)NC(=O)[C@H](CCC(N)=O)NC(=O)[C@@H](NC(=O)[C@H](C)NC(=O)[C@@H]1CSSC[C@H](NC(=O)[C@@H](N)CCCCN)C(=O)N[C@@H](CC(N)=O)C(=O)N[C@@H]([C@@H](C)O)C(=O)N[C@@H](C)C(=O)N[C@@H]([C@@H](C)O)C(=O)N1)[C@@H](C)O)C(C)C)C(=O)N[C@@H](CC(C)C)C(=O)N1CCC[C@H]1C(=O)N1CCC[C@H]1C(=O)N[C@H](C(=O)N[C@@H](CC(N)=O)C(=O)N[C@H](C(=O)NCC(=O)N[C@@H](CO)C(=O)N[C@@H](CC(N)=O)C(=O)N[C@H](C(=O)N[C@@H](Cc1ccc(O)cc1)C(N)=O)[C@@H](C)O)C(C)C)[C@@H](C)O [Example 9, N-epsilon25-(2-{2-[2-(2-{2-[2-(17-carboxyheptadecanoylamino)ethoxy]ethoxy}acetylamino)ethoxy]ethoxy}acetyl)-[Arg18,Lys25]-pramlintide (1-37)] (H-KCNTATCATQRLANFLVRSSNNFGK([AEEA-AEEA-C18 diacid])ILPPTNVGSNTY-NH2; disulfide 2-7)
6 | 0.1 nM | CC[C@H](C)[C@H](NC(=O)[C@@H]1CCCN1C(=O)CNC(=O)[C@H](Cc1ccccc1)NC(=O)[C@H](CC(N)=O)NC(=O)[C@H](CC(N)=O)NC(=O)[C@H](CO)NC(=O)[C@H](CO)NC(=O)[C@H](Cc1c[nH]cn1)NC(=O)[C@@H](NC(=O)[C@H](CC(C)C)NC(=O)[C@H](Cc1ccccc1)NC(=O)[C@H](CC(N)=O)NC(=O)[C@H](C)NC(=O)[C@H](CC(C)C)NC(=O)[C@H](CCCNC(=N)N)NC(=O)[C@H](CCC(N)=O)NC(=O)[C@@H](NC(=O)[C@H](C)NC(=O)[C@@H]1CSSC[C@H](NC(=O)[C@H](CCCNC(=N)N)NC(=O)[C@H](CCC(=O)O)NC(=O)CCCCCCCCCCCCCCCCCCC(=O)O)C(=O)N[C@@H](CC(N)=O)C(=O)N[C@@H]([C@@H](C)O)C(=O)N[C@@H](C)C(=O)N[C@@H]([C@@H](C)O)C(=O)N1)[C@@H](C)O)C(C)C)C(=O)N[C@@H](CC(C)C)C(=O)N1CCC[C@H]1C(=O)N1CCC[C@H]1C(=O)N[C@H](C(=O)N[C@@H](CC(N)=O)C(=O)N[C@H](C(=O)NCC(=O)N[C@@H](CO)C(=O)N[C@@H](CC(N)=O)C(=O)N[C@H](C(=O)N[C@@H](Cc1ccc(O)cc1)C(N)=O)[C@@H](C)O)C(C)C)[C@@H](C)O [Example 46, N-alpha-(19-carboxynonadecanoyl)-Glu-[Arg1]-pramlintide (1-37)] ({C20 diacid}-ERCNTATCATQRLANFLVHSSNNFGPILPPTNVGSNTY-NH2; disulfide 3-8; C-terminus assumed)
